We go through 4 molecules from patent publication US20230265151A1, “GIP/GLP1 CO-AGONIST COMPOUNDS” (priority 2020, published 2023).

What all share (assay type): cell-based
In experiment [1] the target is hGLP-1R (Homo sapiens, UniProt P43220). The experiment in a line: Functional cAMP formation (HTRF) in HEK-293 clonal cells expressing hGLP-1R, 0.1% bovine casein, without or with 1.0% human serum albumin. The arrangement: expressed in transfected cells. Particulars: for EC50: cAMP. The procedure, abridged: (§1)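 Cells were stimulated with peptide for 30 min at 37° C, then intracellular cAMP was measured by competitive HTRF (665/620 nm ratio) and converted to nM using a cAMP standard curve. Relative EC50 and Emax came from four-parameter logistic fits of percent maximal response against peptide concentration.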
hGLP-1R, sequence (P43220 24-463): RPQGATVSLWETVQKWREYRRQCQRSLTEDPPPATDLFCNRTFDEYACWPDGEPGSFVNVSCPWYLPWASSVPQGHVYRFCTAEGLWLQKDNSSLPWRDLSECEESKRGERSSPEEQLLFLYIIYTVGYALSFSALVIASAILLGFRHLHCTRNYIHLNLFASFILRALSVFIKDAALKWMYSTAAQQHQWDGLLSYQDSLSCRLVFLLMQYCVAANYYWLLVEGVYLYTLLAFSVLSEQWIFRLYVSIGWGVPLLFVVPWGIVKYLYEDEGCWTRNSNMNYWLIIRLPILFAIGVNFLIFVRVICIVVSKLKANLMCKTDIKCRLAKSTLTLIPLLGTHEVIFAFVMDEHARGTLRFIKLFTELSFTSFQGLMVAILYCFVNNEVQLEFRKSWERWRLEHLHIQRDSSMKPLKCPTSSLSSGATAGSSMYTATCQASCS

For experiment [2], the target named is T1, hGCGR (Homo sapiens, UniProt P47871).
T1 construct: expressed in transfected cells
T1 sequence (P47871 26-477): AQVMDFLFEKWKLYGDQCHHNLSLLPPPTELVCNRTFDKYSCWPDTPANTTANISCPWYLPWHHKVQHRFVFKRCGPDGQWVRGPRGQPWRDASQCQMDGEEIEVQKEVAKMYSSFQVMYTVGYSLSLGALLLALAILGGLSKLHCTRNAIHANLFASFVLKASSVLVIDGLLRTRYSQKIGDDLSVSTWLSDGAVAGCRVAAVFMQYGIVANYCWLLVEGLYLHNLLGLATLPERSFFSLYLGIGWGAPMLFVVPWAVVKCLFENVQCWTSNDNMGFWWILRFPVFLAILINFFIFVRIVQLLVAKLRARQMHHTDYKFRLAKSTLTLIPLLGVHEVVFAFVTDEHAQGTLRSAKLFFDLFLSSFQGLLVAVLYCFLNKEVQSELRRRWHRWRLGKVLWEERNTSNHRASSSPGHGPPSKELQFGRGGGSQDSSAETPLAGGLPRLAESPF
The experiment in a line: Functional cAMP formation (HTRF) in HEK-293 clonal cells expressing hGCGR, 0.1% bovine casein, without or with 1.0% human serum albumin. The procedure, abridged: as §1

Experiment [3] concerns the target T2, hGIPR (Homo sapiens, UniProt P48546).
T2 construct: expressed in transfected cells
T2 sequence (P48546 22-466): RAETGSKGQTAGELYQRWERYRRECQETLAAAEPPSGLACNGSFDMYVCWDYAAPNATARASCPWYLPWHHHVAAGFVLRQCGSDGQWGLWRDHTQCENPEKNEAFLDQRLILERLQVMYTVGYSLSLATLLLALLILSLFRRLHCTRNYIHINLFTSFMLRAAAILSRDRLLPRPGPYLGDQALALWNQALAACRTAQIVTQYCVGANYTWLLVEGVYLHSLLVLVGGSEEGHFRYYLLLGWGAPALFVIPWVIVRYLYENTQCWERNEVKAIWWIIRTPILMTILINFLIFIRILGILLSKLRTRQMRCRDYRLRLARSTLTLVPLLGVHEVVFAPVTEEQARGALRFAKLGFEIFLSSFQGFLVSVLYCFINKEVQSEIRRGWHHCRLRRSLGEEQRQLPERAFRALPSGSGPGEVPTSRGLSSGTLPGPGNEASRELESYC
The experiment in a line: Functional cAMP formation (HTRF) in HEK-293 clonal cells expressing hGIPR, 0.1% bovine casein, without or with 1.0% human serum albumin. As to conditions: for EC50: cAMP, read-out: hGIPR EC50, nM (SEM, n); for Emax: percent of maximal response to GIP(1-42)NH2. The procedure, abridged:
as §1
For orientation: Changes in cAMP serve as a functional read-out for many G protein-coupled receptors.

Where [4] appears, read: HEK293, cAMP, 37° C., 0.1% bovine casein, percent of maximal response to GLP-1(7-36)NH2, arithmetic mean, read-out: hGLP-1R Emax, % ± SEM.
The mark [5] stands for this setting: 37° C., 0.1% bovine casein (no human serum albumin), geometric mean, read-out: hGLP-1R EC50, nM (SEM, n).
Where [6] appears, read: cAMP, 37° C., 0.1% bovine casein (no human serum albumin), geometric mean, read-out: hGCGR EC50, nM (SEM, n).
The mark [7] stands for this setting: cAMP, 37° C., 0.1% bovine casein and 1.0% human serum albumin, geometric mean (SEM, n), read-out: hGCGR EC50, nM (SEM, n).
The mark [8] stands for this setting: HEK293, cAMP, 37° C., 0.1% bovine casein and 1.0% human serum albumin, read-out: hGIPR Emax, % ± SEM.
Setting [9] is: 37° C., 0.1% bovine casein (no human serum albumin), geometric mean.

Read-outs that look alike come from different tables or passages of the source. Bounds are passed on as bounds.

A word on the Emax: it is the greatest response seen or fitted, relative to the assay's reference. Broadly, the EC50 is the concentration giving half of the maximal effect.

For the molecule `CC[C@H](C)[C@H](NC(=O)[C@H](CC(C)C)NC(=O)[C@](C)(Cc1ccc(O)cc1)NC(=O)[C@@H](CCC(=O)O)NC(=O)[C@@H](NC(=O)[C@H](Cc1csc2ccccc12)NC(=O)[C@H](CCC(=O)O)NC(=O)C(C)(C)NC(=O)[C@H](CCC(N)=O)NC(=O)[C@H](C)NC(=O)[C@H](CCCCNC(=O)COCCOCCNC(=O)COCCOCCNC(=O)CC[C@H](NC(=O)CCCCCCCCCCCCC(=O)O)C(=O)O)NC(=O)[C@H](CCCN)NC(=O)[C@H](CC(=O)O)NC(=O)[C@H](CC(C)C)NC(=O)[C@](C)(CC(C)C)NC(=O)[C@@H](NC(=O)[C@H](CO)NC(=O)[C@H](Cc1ccncc1)NC(=O)[C@H](CC(=O)O)NC(=O)[C@H](CO)NC(=O)[C@@H](NC(=O)[C@](C)(Cc1ccccc1F)NC(=O)[C@@H](NC(=O)CNC(=O)[C@H](CCC(=O)O)NC(=O)C(C)(C)NC(=O)[C@@H](N)Cc1ccc(O)cc1)[C@@H](C)O)[C@@H](C)O)[C@@H](C)CC)[C@@H](C)CC)C(=O)N[C@@H](CCC(=O)O)C(=O)NCC(=O)NCC(=O)N[C@@H](CCCCNC(=O)COCCOCCNC(=O)COCCOCCNC(=O)CC[C@H](NC(=O)CCCCCCCCCCCCC(=O)O)C(=O)O)C(=O)N[C@@H](CO)C(=O)N[C@@H](CO)C(=O)NCC(=O)N[C@@H](C)C(=O)N1CCC[C@H]1C(=O)N1CCC[C@H]1C(=O)N1CCC[C@H]1C(=O)N[C@@H](CO)C(N)=O` [Example 147], in experiment [1] (HEK293, percent of maximal response to GLP-1(7-36)NH2, 37° C., 0.1% bovine casein, arithmetic mean, read-out: hGLP-1R Emax, % ± SEM), the Emax is 93.5%. Also, the EC50 in experiment [1] (incubated at 37° C., 0.1% bovine casein (no human serum albumin), geometric mean, read-out: hGLP-1R EC50, nM (SEM, n)) was 0.338 nM; in experiment [2] (cAMP, incubated at 37° C., 0.1% bovine casein (no human serum albumin), geometric mean, read-out: hGCGR EC50, nM (SEM, n)) it was more than 9950 nM; in experiment [3] (incubated at 37° C., 0.1% bovine casein (no human serum albumin), geometric mean), 0.0229 nM.
`CC[C@H](C)[C@H](NC(=O)[C@H](CC(C)C)NC(=O)[C@](C)(Cc1ccc(O)cc1)NC(=O)[C@@H](CCC(=O)O)NC(=O)[C@@H](NC(=O)[C@H](Cc1ccccc1)NC(=O)[C@H](CCC(=O)O)NC(=O)C(C)(C)NC(=O)[C@H](CCC(N)=O)NC(=O)[C@H](C)NC(=O)[C@H](CCCCNC(=O)COCCOCCNC(=O)CC[C@H](NC(=O)CCCCCCCCCCCCC(=O)O)C(=O)O)NC(=O)[C@H](CCCN)NC(=O)[C@H](CC(=O)O)NC(=O)[C@H](CC(C)C)NC(=O)[C@](C)(CC(C)C)NC(=O)[C@@H](NC(=O)C(C)(C)NC(=O)[C@@H](NC(=O)[C@H](CC(=O)O)NC(=O)[C@H](CO)NC(=O)[C@@H](NC(=O)[C@](C)(Cc1ccccc1F)NC(=O)[C@@H](NC(=O)CNC(=O)[C@H](CCC(=O)O)NC(=O)C(C)(C)NC(=O)[C@@H](N)Cc1ccc(O)cc1)[C@@H](C)O)[C@@H](C)O)C(C)C)[C@@H](C)CC)[C@@H](C)CC)C(=O)N[C@@H](CCCCNC(=O)COCCOCCNC(=O)CC[C@H](NC(=O)CCCCCCCCCCCCC(=O)O)C(=O)O)C(=O)NCC(=O)NCC(=O)N1CCC[C@H]1C(=O)N[C@@H](CO)C(=O)N[C@@H](CO)C(=O)NCC(=O)N[C@@H](C)C(=O)N1CCC[C@H]1C(=O)N1CCC[C@H]1C(=O)N1CCC[C@H]1C(=O)N[C@@H](CO)C(N)=O` [Example 399]: the maximum response (Emax) in experiment [1] (HEK293, cAMP, 37° C., 0.1% bovine casein and 1.0% human serum albumin, percent of maximal response to GLP-1(7-36)NH2, read-out: hGLP-1R Emax, % ± SEM) was determined as 89.7%; in experiment [1] (setting [4]), 91.9%; in experiment [3] (setting [8]), 86.8%. Besides, the EC50 is 0.259 nM in experiment [1] (setting [5]), more than 9950 nM in experiment [2] (setting [6]), more than 9950 nM in experiment [2] (setting [7]) and 0.0186 nM in experiment [3] (setting [9]).
With `CC[C@H](C)[C@H](NC(=O)[C@H](CCCN)NC(=O)[C@H](CC(=O)O)NC(=O)[C@H](CC(C)C)NC(=O)[C@](C)(CC(C)C)NC(=O)[C@@H](NC(=O)[C@H](CO)NC(=O)[C@H](Cc1ccc2ccccc2c1)NC(=O)[C@H](CC(=O)O)NC(=O)[C@H](CO)NC(=O)[C@@H](NC(=O)[C@](C)(Cc1ccccc1F)NC(=O)[C@@H](NC(=O)CNC(=O)[C@H](CCC(=O)O)NC(=O)C(C)(C)NC(=O)[C@@H](N)Cc1ccc(O)cc1)[C@@H](C)O)[C@@H](C)O)[C@@H](C)CC)C(=O)N[C@@H](C)C(=O)N[C@@H](CCC(N)=O)C(=O)NC(C)(C)C(=O)N[C@@H](CCC(=O)O)C(=O)N[C@@H](Cc1ccccc1)C(=O)N[C@H](C(=O)N[C@@H](CCCCNC(=O)COCCOCCNC(=O)COCCOCCNC(=O)CC[C@H](NC(=O)CCCCCCCCCOc1ccc(C(=O)O)cc1)C(=O)O)C(=O)N[C@@](C)(Cc1ccc(O)cc1)C(=O)N[C@@H](CC(C)C)C(=O)N[C@H](C(=O)N[C@@H](CCCCNC(=O)COCCOCCNC(=O)COCCOCCNC(=O)CC[C@H](NC(=O)CCCCCCCCCOc1ccc(C(=O)O)cc1)C(=O)O)C(=O)NCC(=O)NCC(=O)N1CCC[C@H]1C(=O)N[C@@H](CO)C(=O)N[C@@H](CO)C(=O)NCC(=O)N[C@@H](C)C(=O)N1CCC[C@H]1C(=O)N1CCC[C@H]1C(=O)N1CCC[C@H]1C(=O)N[C@@H](CO)C(N)=O)[C@@H](C)CC)[C@@H](C)CC` [Example 283], the maximum response (Emax) in experiment [1] (HEK293, read-out: hGLP-1R Emax, % ± SEM, 0.1% bovine casein and 1.0% human serum albumin, 37° C., percent of maximal response to GLP-1(7-36)NH2) stood at 96.6%; in experiment [3] (HEK293, read-out: hGIPR Emax, % ± SEM, 0.1% bovine casein and 1.0% human serum albumin, 37° C.) it was 114%. Further, the EC50 in experiment [1] (hGLP-1R EC50, nM (SEM, n), 37° C., 0.1% bovine casein (no human serum albumin), geometric mean) is 1.14 nM; in experiment [2] (hGCGR EC50, nM (SEM, n), 0.1% bovine casein and 1.0% human serum albumin, 37° C., geometric mean) it was more than 9950 nM; in experiment [2] (hGCGR EC50, nM (SEM, n), cAMP, 37° C., 0.1% bovine casein (no human serum albumin), geometric mean), more than 9950 nM.
In the case of `CC[C@H](C)[C@H](NC(=O)[C@H](CCCN)NC(=O)[C@H](CC(=O)O)NC(=O)[C@H](CC(C)C)NC(=O)[C@](C)(CC(C)C)NC(=O)[C@@H](NC(=O)C(C)(C)NC(=O)[C@H](Cc1ccncc1)NC(=O)[C@H](CC(=O)O)NC(=O)[C@H](CO)NC(=O)[C@@H](NC(=O)[C@](C)(Cc1ccccc1F)NC(=O)[C@@H](NC(=O)CNC(=O)[C@H](CCC(=O)O)NC(=O)C(C)(C)NC(=O)[C@@H](N)Cc1ccc(O)cc1)[C@@H](C)O)[C@@H](C)O)[C@@H](C)CC)C(=O)N[C@@H](C)C(=O)N[C@@H](CCC(N)=O)C(=O)NC(C)(C)C(=O)N[C@@H](CCC(=O)O)C(=O)N[C@@H](Cc1ccccc1)C(=O)N[C@H](C(=O)N[C@@H](CCCCNC(=O)COCCOCCNC(=O)COCCOCCNC(=O)COCCOCCNC(=O)CC[C@H](NC(=O)CCCCCCCCCCCCC(=O)O)C(=O)O)C(=O)N[C@@](C)(Cc1ccc(O)cc1)C(=O)N[C@@H](CC(C)C)C(=O)N[C@H](C(=O)N[C@@H](CCCCNC(=O)COCCOCCNC(=O)COCCOCCNC(=O)COCCOCCNC(=O)CC[C@H](NC(=O)CCCCCCCCCCCCC(=O)O)C(=O)O)C(=O)NCC(=O)NCC(=O)N1CCC[C@H]1C(=O)N[C@@H](CO)C(=O)N[C@@H](CO)C(=O)NCC(=O)N[C@@H](C)C(=O)N1CCC[C@H]1C(=O)N1CCC[C@H]1C(=O)N1CCC[C@H]1C(=O)N[C@@H](CO)C(N)=O)[C@@H](C)CC)[C@@H](C)CC` [Example 342], the values for the Emax in experiment [1] (setting [4]) and in experiment [3] (setting [8]) were 113% and 89.3%, respectively. Moreover, the EC50 is 0.191 nM in experiment [1] (setting [5]); 13.6 nM in experiment [1] (37° C., 0.1% bovine casein and 1.0% human serum albumin, geometric mean (SEM, n), read-out: hGLP-1R EC50, nM (SEM, n)); more than 10100 nM in experiment [2] (setting [6]); more than 9950 nM in experiment [2] (setting [7]); 0.0105 nM in experiment [3] (setting [9]); 1.04 nM in experiment [3] (37° C., 0.1% bovine casein and 1.0% human serum albumin, geometric mean (SEM, n)).
